In article PMC4552745, “Novel Gallate Triphenylphosphonium Derivatives with Potent Antichagasic Activity” (PLoS ONE, 2015):

What was measured:
VERO cells = test: MTT reduction viability assay on VERO cells; assay type: cell-based; settings: Chlorocebus sabaeus, 24 hours exposure, mean ± SD
Method: (§1) The effect of the drugs on parasite viability was evaluated using the tetrazolium salt (MTT) reduction assay. […] Alternatively, VERO cells attached to the surface of 96-well plates were washed and incubated with MTT (5 mg/mL). After incubation for 4 h at 37°C, the generated formazan crystals were dissolved with 100 μL of 10% (w/v) sodium dodecyl sulfate (SDS) in 0.01 M HCl. The plates were then incubated overnight at 37°C, and the optical density (OD) was determined using a microplate reader (Labsystems Multiskan MS, Finland) at 570 nm. Under these conditions, the OD is directly proportional to the number of viable cells in each well [33, 34]. All of the experiments were performed at least three times. […] The data from each experiment were plotted using the formazan absorbance versus the log of the concentration, and the plot was fitted to the dose-response (four-parameters) equation using the software Graph Pad Prism V5.0, obtaining the EC50 value per drug and per experiment. The data are expressed as the mean ± DS of the EC50s obtained from each experiment.

[1] = tested on: T. cruzi trypomastigotes (Y strain); test: MTT reduction viability assay on isolated trypomastigotes; assay type: cell-based, Trypanosoma cruzi; settings: for EC50: Trypanosoma cruzi, Y strain, 24 hours exposure, MTT assay, mean ± SD, read-out: EC50 T. cruzi trypomastigote; for Selectivity index (VERO/T. cruzi): ratio of EC50 VERO cells to EC50 T. cruzi trypomastigote
Method: as §1, with “Trypomastigotes (Y strain, DTU T. cruzi II) were obtained from infected VERO cells (Chlorocebus sabaeus kidney fibroblasts obtained from ATCC, ATCC number: CCL-81). The cells were exposed to trypomastigotes (Y strain) at a 3:1 density (trypomastigote:cell). The trypomastigotes were allowed to infect the cells for 24 h, and the supernatant was then extracted. The trypomastigotes were released from VERO cells at 4 days after infection. The parasites were harvested and collected for viability assays. The effect” for “The effect”

[2] = tested on: T. cruzi trypomastigotes (Y strain); assay type: cell-based; settings: for markers of cell death (phosphatidylserine exposure and propidium iodide permeabilization): 1 μM, 24 hours; for number of viable cells (without annexin-V or PI positivity): 24 hours, 0.1, 0.5 or 1 μM, Fig 2B
Method: For these assays, 10^7 trypomastigotes (Y strain) were exposed to […] for 24 h in RPMI at 37°C and 5% CO2. The cells were then washed in phosphate-buffered saline (PBS), resuspended, and incubated with propidium iodide (PI) and Annexin-V labeled with Alexa Fluor 488. The incubation was performed using Alexa Fluor 488 Annexin V/Dead Cell Apoptosis Kit (Molecular Probes, USA) following the manufacturer’s instructions. The fluorescence of the samples was measured using a FACSAria-III flow cytometer (BD biosciences, USA) with 530/30 and 630/22 filters to detect Annexin-V and PI, respectively. For each sample, 5,000 events were recorded, and the data were analyzed using FACSDiva 6.1 software.

[3] = tested on: T. cruzi intracellular amastigotes in VERO cells; test: DAPI staining and intracellular amastigote quantification in infected VERO cells; assay type: cell-based, Trypanosoma cruzi; settings: 1 μM, 48 hours, control 12.9 ± 2.2
Method: VERO (Chlorocebus sabaeus kidney fibroblasts, ATCC number: CCL-81) cells were exposed to T. cruzi trypomastigotes (Y strain) at a 5:1 ratio (trypomastigotes:cells) for 24 hours. The cells were then washed and treated with different compounds, at 0.1 and 1 μM, for 48 hours. The cells were washed and fixed in cold methanol (70%) overnight; the fixed cells were washed, and 1 mL of PBS (pH 7.4) was added. The DNA was stained with DAPI (NucBlue, Molecular Probes, USA) following the manufacturer’s instructions. The cells were photographed using a Nikon Eclipse 400 fluorescence microscope at 358 nm (excitation) and 461 nm (emission). Five images were obtained per well, and each picture was analyzed by two independent researchers.

[4] = tested on: T. cruzi in infected RAW 264.7 cells; test: Parasite DNA load by real-time PCR in infected RAW cells; assay type: cell-based, Trypanosoma cruzi; settings: for parasite's DNA load: 1 μM, qPCR, 48 hours; for parasite load (qPCR): infected RAW cells, 48 hours after treatment, Fig 4
Text: DNA from infected RAW cells (murine macrophages, ATCC number: TIB-71) was isolated using Wizard Genomic DNA Purification Kit (Promega, USA) following the manufacturer’s instructions. DNA was quantified through […] absorbance measurements using a Varioskan spectrophotometer (Thermo Scientific, USA). To evaluate the parasite DNA load, we used a TaqMan-Duplex system, as described previously. To amplify an 84-bp T. cruzi satellite DNA sequence, we used the following primers: TcSt 4-Fw (5’-[…]-3’) and TcSt 1-Rev (5’-[…]-3’) and the TcSt-1 probe (5’-FAM-[…]-BHQ-1-3’). As an endogenous control, we used the Mus-F (5’-[…]-3’) and Mus-R (5’-[…]-3’) primers coupled with the MM-1 probe (5’-HEX-AAAGCATCTGCCTCCG-BHQ-1-3’) to amplify a 67-bp Mus musculus GAPDH sequence. The primers and probes were designed using Primer Express 3.0 Software (Applied Biosystems, USA) and manufactured by Integrated DNA Technologies (Coralville, IA, USA). The PCR reactions were performed using an ABI7300 real-time thermocycler (Applied Biosystems, USA). […] ROX was used as a reference dye. For both TaqMan assays, the thermal cycle consisted of a polymerase activation step carried out at 95°C for 10 min (one cycle) and a two-step amplification phase: 95°C for 15 s and 55°C for 45 s (40 cycles). Fluorescence was measured at the end of each amplification cycle. The data were analyzed using 7300 System SDS software with the SDS relative quantitation plug-in (Applied Biosystems, USA). All of the data were analyzed by the 2^-∆∆CT method, comparing the CTs of the T. cruzi gene versus that of GAPDH as well as comparing all of the samples with the controls. The parasite load is expressed as the relative DNA load compared with the controls.

Compound | EC50 (VERO cells) [µM] | EC50 [1] [µM] | Selectivity index (VERO/T. cruzi) [1] | markers of cell death (phosphatidylserine exposure and propidium iodide permeabilization) [2] | number of viable cells (without annexin-V or PI positivity) [2] | number of amastigotes per infected cell [3] | parasite's DNA load [4] | parasite load (qPCR) [4]
O=C(OCCCCCCCCCC[P+](c1ccccc1)(c1ccccc1)c1ccccc1)c1cc(O)c(O)c(O)c1.[Br-] [TPP^+-C10, triphenyl(10-((3,4,5-trihydroxybenzoyl)oxy)-decyl) phosphonium bromide] | 11.3 ± 0.1 | 1 ± 0.6 | 11.3 | induced markers of cell death | significant decrease in the number of viable cells at concentrations of 0.5 and 1 μM | 2.5 ± 1.1 | 10 % of control measurements | reduced the parasite load in a concentration-dependent manner
O=C(OCCCCCCCCCCCC[P+](c1ccccc1)(c1ccccc1)c1ccccc1)c1cc(O)c(O)c(O)c1.[Br-] [TPP^+-C12, triphenyl(12-((3,4,5-trihydroxybenzoyl)oxy)-dodecyl) phosphonium bromide] | 10.9 ± 2.4 | 1 ± 0.7 | 10.9 | induced markers of cell death | significant decrease in the number of viable cells at concentrations of 0.5 and 1 μM | 2.0 ± 0.7 | 13 % of control measurements | reduced the parasite load in a concentration-dependent manner
